Assay results taken from ChEMBL document CHEMBL1148252, “Orally bioavailable small molecule ketoamide-based inhibitors of cathepsin K” (Bioorg Med Chem Lett, 2004).
Values after ≈ are worked out from the molar mass of the structure shown.

Legend:
[1] = Apparent permeability coefficient (Papp) for apical to basolateral flux was determined in MadinDarby Canine Kidney cells; assay type: ADME, Canis lupus familiaris; settings: dog, MDCK
[2] = Oral bioavailability in rat (male Wistar); assay type: ADME, organism-based; settings: in vivo
[3] = Tested for the total clearance of the compound; assay type: ADME, organism-based; settings: in vivo
[4] = Tested for iv terminal half-life dosed as a solution in male Han Wistar rats; assay type: ADME, organism-based; settings: rat, in vivo
[5] = Steady state volume of distribution (Vsss) was determined; assay type: ADME, organism-based; settings: in vivo; read-out: Vsss
[6] = Partition coefficient (logP); assay type: physicochemical; settings: octanol/water
[7] = Tested for equilibrium solubility in fasted state-simulated intestinal fluid at pH 6.8; assay type: ADME; settings: fasted state-simulated intestinal fluid (FS-SIF)

Compound | Papp A→B [1] [×10⁻⁶ cm/s] | bioavailability [2] [%] | clearance [3] [mL/min/kg] | half-life [4] [min] | Vd [5] [L/kg] | logP [6] | solubility thermodynamic [7] [µg/mL]
CCCC[C@H](NC(=O)OC(C(C)C)C(C)C)C(=O)C(=O)NCc1ccno1 | 41 | 32 | 29 | 52 | 1.2 | 5 | 63 (≈ 165 µM)
CCCC[C@H](NC(=O)OC(C(C)C)C(C)C)C(=O)C(=O)NCc1nnco1 | 51 | 16 | 33 | 21 | 0.98 | 3.4 | 150 (≈ 392 µM)
CCCC[C@H](NC(=O)OC(C(C)C)C(C)C)C(=O)C(=O)NCc1ccccn1 | 51 | 10 | 5.2 | 77 | 0.24 | – | 28 (≈ 71.5 µM)
CCCC[C@H](NC(=O)OC(C(C)C)C(C)C)C(=O)C(=O)N[C@H](C)c1ccccc1 | 5.7 | 3.1 | 8.7 | – | 1.9 | 7.3 | 12 (≈ 29.7 µM)
CCCC[C@H](NC(=O)OC(C(C)C)C(C)C)C(=O)C(=O)N[C@H]1CCCNC1=O | 31 | 20 | 44 | 220 | 1.6 | 4.4 | 350 (≈ 880 µM)
CCCC[C@H](NC(=O)OC(C(C)C)C(C)C)C(=O)C(=O)NCc1ccncc1 | – | 5.2 | 7.1 | 240 | 0.09 | – | 62 (≈ 158 µM)
CNC(=O)NCCCC[C@H](NC(=O)OC(C(C)C)C(C)C)C(=O)C(=O)N[C@H](C)c1ccccc1 | – | 10 | 24 | 260 | 1.5 | 5.5 | 32 (≈ 67.1 µM)
CCCC[C@H](NC(=O)OC(C(C)C)C(C)C)C(=O)C(=O)NCc1cncs1 | 48 | 55 | 28 | 150 | 1.3 | 5.3 | 51 (≈ 128 µM)
